Experiments:
Type in all cases: cell-based
[1] = tested on: primary rat embryonic OPCs; experiment: QrtPCR of mRNA (MBP, p38MAPK) in primary rat embryonic OPCs; settings: for expression of MBP, mRNA and protein levels: in the presence of polymyxin B (50 μg/ml), 50 and 100 ng/ml, 4 days
Method: (§1) Primary rat embryonic OPCs were isolated and prepared according to the method known to the skilled artisan. Briefly, on embryonic day 17, rat embryos were removed from a pregnant Wistar rat in a laminar flow hood. The cortices were dissected out by using microdissecting scissors, rinsed twice in Hank's buffered salt solution and dissociated after digesting with 0.01% trypsin and DNase at 37° C. for 15 min. The digested cells were washed twice, filtered through a 70 mm nylon cell strainer and plated with DMEM containing 20% fetal bovine serum (FBS) in poly-D-lysine coated T75 cell culture flasks (approximately 10 million cells per flask). The cells grew to confluence for 10 days and then were placed on the shaker at 200 r.p.m. at 37° C. for 1 h to remove microglial cells. Subsequently, the cells were left on the shaker for an additional 18-20 h to collect OPCs. The collected OPCs were plated in untreated Petri dishes for 1 h to remove contaminated microglia and astrocytes which attach to the Petri dish more efficiently than OPCs. The unattached OPCs were transferred onto poly-D,L-ornithine-coated Petri dishes at a cell density of 10^4 per/cm2 with a basal chemically defined medium (“BDM”) containing 10 ng/ml platelet-derived growth factor-alpha (“PDGF-AA”) and 10 ng/ml basic fibroblast growth factor (“bFGF”) for 7-10 days.
(§2) The mouse primary cultures of OPCs were conditionally immortalized by transformation with a temperature-sensitive large T-antigen into a mouse OPC cell line-N20.1 (21). N20.1 cells were provided by Dr. Anthony Campagnoni (University of California at Los Angeles). N20.1 cells were grown and maintained in Dulbecco's modified Eagle's medium (“DMEM”)/F12 with 1% fetal bovine serum (“FBS”) and G418 (100 μg/ml) at 37° C. For N20.1 cells, transient transfections were performed with Nucleofector kit according to the manufacturer's protocol (Amaxa, Germany). The cells (10^6) were mixed with 1 μg plasmid DNA or 100 pmol of siRNA/oligo nucleotides and pulsed according to the manufacturer's instruction. […]

[2] = tested on: mouse OPC cell line-N20.1; experiment: QrtPCR of mRNA (MBP, p38MAPK) in N20.1 cells; settings: for expression of MBP, mRNA and protein levels: in the presence of polymyxin B (50 μg/ml), 50 and 100 ng/ml, 4 days
Method: The mouse primary cultures of OPCs were conditionally immortalized by transformation with a temperature-sensitive large T-antigen into a mouse OPC cell line-N20.1 (21). N20.1 cells were provided by Dr. Anthony Campagnoni (University of California at Los Angeles). N20.1 cells were grown and maintained in Dulbecco's modified Eagle's medium (“DMEM”)/F12 with 1% fetal bovine serum (“FBS”) and G418 (100 μg/ml) at 37° C. For N20.1 cells, transient transfections were performed with Nucleofector kit according to the manufacturer's protocol (Amaxa, Germany). The cells (10^6) were mixed with 1 μg plasmid DNA or 100 pmol of siRNA/oligo nucleotides and pulsed according to the manufacturer's instruction. The transfected cells were immediately plated into Petri dishes with DMEM containing 1% FBS and incubated at 37° C. for days. Primary rat embryonic OPCs were transiently transfected with Lipofectamine (Invitrogen) overnight, according to the manufacturer's protocol (see Chew et al., J. Neuroscience 30(33): 11011-11027 (2010)). Amounts of DNA and siRNA/oligo nucleotides were used as recommended by the manufacturer. The control plasmid (pcDNA3) was used as a mock transfected control for miR-146a expression vector transfection, and control siRNA (Ambion, a random mixture of oligonucleotides) was used as a mock transfected control for both transfections with Tβ4siRNA and anti-miR-146a inhibitor nucleotides. The cells (10^4 cells/cm^2) were treated with 0, 25, 50, 100 ng/ml of Tβ4 (RegeneRx Biopharmaceuticals Inc., Rockville, Md.). The cells were incubated at 37° C. and fed every 2 days with fresh medium (DMEM containing 1% FBS for N20.1 cells and BDM for primary rat embryonic OPCs) with and without Tβ4 for 4 days. […]
After qrtPCR, agarose gel electrophoresis was performed to verify the quality of the qrtPCR products. No secondary products were detected. […] Values obtained from three independent experiments were analyzed relative to gene expression data using the 2^−ΔΔCT method.

[3] = tested on: primary rat embryonic OPCs; experiment: MBP immunofluorescence cell counting in primary rat embryonic OPCs; settings: Tβ4 100 ng/ml where used; DAPI positive cells as total
Method: (§3) Primary rat embryonic OPCs were isolated and prepared according to the method known to the skilled artisan. Briefly, on embryonic day 17, rat embryos were removed from a pregnant Wistar rat in a laminar flow hood. The cortices were dissected out by using microdissecting scissors, rinsed twice in Hank's buffered salt solution and dissociated after digesting with 0.01% trypsin and DNase at 37° C. for 15 min. The digested cells were washed twice, filtered through a 70 mm nylon cell strainer and plated with DMEM containing 20% fetal bovine serum (FBS) in poly-D-lysine coated T75 cell culture flasks (approximately 10 million cells per flask). The cells grew to confluence for 10 days and then were placed on the shaker at 200 r.p.m. at 37° C. for 1 h to remove microglial cells. Subsequently, the cells were left on the shaker for an additional 18-20 h to collect OPCs. The collected OPCs were plated in untreated Petri dishes for 1 h to remove contaminated microglia and astrocytes which attach to the Petri dish more efficiently than OPCs. The unattached OPCs were transferred onto poly-D,L-ornithine-coated Petri dishes at a cell density of 10^4 per/cm2 with a basal chemically defined medium (“BDM”) containing 10 ng/ml platelet-derived growth factor-alpha (“PDGF-AA”) and 10 ng/ml basic fibroblast growth factor (“bFGF”) for 7-10 days. […]

mouse N20.1 cells = experiment: MBP immunofluorescence cell counting in N20.1 cells; settings: Tβ4 100 ng/ml where used; DAPI positive cells as total
Method: as §2
Immunofluorescence staining was performed in N20.1 and primary rat embryonic OPC cells. These cells were fixed with 4% paraformaldehyde for 1 h, washed with PBS, blocked with 1% serum for 1 h and incubated with monoclonal antibodies of OPC marker—O4, (1:1000, Chemicon, Billerica, Mass., USA) and a polyclonal antibody against mature OL marker—MBP (1:200; Dako, Carpinteria, Calif.) at room temperature for one hour, rinsed with PBS and secondary antibodies labeled with cyanine fluorophore (Cy3—red fluorescence) for 1 h. The slides were counterstained with 4′,6-diamidino-2-phenylindole (DAPI—blue fluorescence) and examined under Fluorescent Illumination Microscope (Olympus IX71/IX51, Tokyo, Japan). […]

[4] = tested on: mouse OPC cell line-N20.1; experiment: Western blot of MBP, TLR signaling mediators and MAPKs in N20.1 cells
Method: The mouse primary cultures of OPCs were conditionally immortalized by transformation with a temperature-sensitive large T-antigen into a mouse OPC cell line-N20.1 (21). N20.1 cells were provided by Dr. Anthony Campagnoni (University of California at Los Angeles). N20.1 cells were grown and maintained in Dulbecco's modified Eagle's medium (“DMEM”)/F12 with 1% fetal bovine serum (“FBS”) and G418 (100 μg/ml) at 37° C. For N20.1 cells, transient transfections were performed with Nucleofector kit according to the manufacturer's protocol (Amaxa, Germany). The cells (10^6) were mixed with 1 μg plasmid DNA or 100 pmol of siRNA/oligo nucleotides and pulsed according to the manufacturer's instruction. The transfected cells were immediately plated into Petri dishes with DMEM containing 1% FBS and incubated at 37° C. for days. Primary rat embryonic OPCs were transiently transfected with Lipofectamine (Invitrogen) overnight, according to the manufacturer's protocol (see Chew et al., J. Neuroscience 30(33): 11011-11027 (2010)). Amounts of DNA and siRNA/oligo nucleotides were used as recommended by the manufacturer. The control plasmid (pcDNA3) was used as a mock transfected control for miR-146a expression vector transfection, and control siRNA (Ambion, a random mixture of oligonucleotides) was used as a mock transfected control for both transfections with Tβ4siRNA and anti-miR-146a inhibitor nucleotides. The cells (10^4 cells/cm^2) were treated with 0, 25, 50, 100 ng/ml of Tβ4 (RegeneRx Biopharmaceuticals Inc., Rockville, Md.). The cells were incubated at 37° C. and fed every 2 days with fresh medium (DMEM containing 1% FBS for N20.1 cells and BDM for primary rat embryonic OPCs) with and without Tβ4 for 4 days. To test for LPS contamination in Tβ4, the cells were cultured in the presence of the LPS inhibitor polymyxin B (50 μg/ml) followed by treatment with Tβ4. Tβ4 (100 ng/ml) was boiled for 10 minutes in order to denature Tβ4 protein and was used as a negative control. Transfected cells (2×10^4 cells/cm2) including mock transfected controls were treated with and without 100 ng/ml of Tβ4 (RegeneRx Biopharmaceuticals Inc., Rockville, Md.) for 4 days and fresh medium was provided at day 2 with/without Tβ4.
Total protein extracts from the cells were prepared, as known to the skilled artisan. The protein extracts were separated by sodium dodecyl sulfate-polyacrylamide gel electrophoresis for Western blot analysis. For Western blot analysis, rabbit antiserum for MBP (1:200; Dako, Carpinteria, Calif.), monoclonal antibodies (1:1000) for p38MAPK, phosphorylated p38MAPK, c-JUN, phosphorylated c-JUN (1:1000; Upstate, Charlottesville, Va., USA), rabbit polyclonal antibodies (1:1000) for JNK1 and phosphorylated JNK1 (Promega Corporation), goat polyclonal TLR2, rabbit polyclonal TLR4, mouse monoclonal IRAK1 antibodies (1:1000), rabbit polyclonal TRAF6 antibodies (1:1000) mouse monoclonal β-actin antibodies (1:5000; Santa Cruz Biotechnology) and mouse monoclonal α-tubulin antibodies (1:5000; Sigma) were used. Donkey anti-goat, anti-rabbit, and anti-mouse horseradish peroxidase (1:5000; Jackson ImmunoResearch Labs, West Grove, Pa., USA) were used as secondary antibodies. Each experiment was repeated at least three times. The protein bands were quantified based on histogram analysis relative to gel loading marker α-tubulin.

[5] = tested on: mouse OPC cell line-N20.1; experiment: miR-146a quantification by qrtPCR in N20.1 cells
Method: The mouse primary cultures of OPCs were conditionally immortalized by transformation with a temperature-sensitive large T-antigen into a mouse OPC cell line-N20.1 (21). N20.1 cells were provided by Dr. Anthony Campagnoni (University of California at Los Angeles). N20.1 cells were grown and maintained in Dulbecco's modified Eagle's medium (“DMEM”)/F12 with 1% fetal bovine serum (“FBS”) and G418 (100 μg/ml) at 37° C. For N20.1 cells, transient transfections were performed with Nucleofector kit according to the manufacturer's protocol (Amaxa, Germany). The cells (10^6) were mixed with 1 μg plasmid DNA or 100 pmol of siRNA/oligo nucleotides and pulsed according to the manufacturer's instruction. The transfected cells were immediately plated into Petri dishes with DMEM containing 1% FBS and incubated at 37° C. for days. Primary rat embryonic OPCs were transiently transfected with Lipofectamine (Invitrogen) overnight, according to the manufacturer's protocol (see Chew et al., J. Neuroscience 30(33): 11011-11027 (2010)). […]
The cDNA for each miR and TaqMan assay were performed in triplicate according to the manufacturer's protocol specified in Applied Biosystems ViiA™ 7 Real-Time PCR System (Applied Biosystem). […] Values obtained from three independent experiments were analyzed relative to gene expression data using the 2^−ΔΔCT method.

[6] = tested on: primary rat embryonic OPCs; experiment: miR-146a quantification by qrtPCR in primary rat embryonic OPCs
Method: as §3

[7] = tested on: primary rat embryonic OPCs; experiment: Western blot of MBP, TLR signaling mediators and MAPKs in primary rat embryonic OPCs
Method: as §1
The mouse primary cultures of OPCs were conditionally immortalized by transformation with a temperature-sensitive large T-antigen into a mouse OPC cell line-N20.1 (21). N20.1 cells were provided by Dr. Anthony Campagnoni (University of California at Los Angeles). N20.1 cells were grown and maintained in Dulbecco's modified Eagle's medium (“DMEM”)/F12 with 1% fetal bovine serum (“FBS”) and G418 (100 μg/ml) at 37° C. For N20.1 cells, transient transfections were performed with Nucleofector kit according to the manufacturer's protocol (Amaxa, Germany). The cells (10^6) were mixed with 1 μg plasmid DNA or 100 pmol of siRNA/oligo nucleotides and pulsed according to the manufacturer's instruction. The transfected cells were immediately plated into Petri dishes with DMEM containing 1% FBS and incubated at 37° C. for days. Primary rat embryonic OPCs were transiently transfected with Lipofectamine (Invitrogen) overnight, according to the manufacturer's protocol (see Chew et al., J. Neuroscience 30(33): 11011-11027 (2010)). Amounts of DNA and siRNA/oligo nucleotides were used as recommended by the manufacturer. The control plasmid (pcDNA3) was used as a mock transfected control for miR-146a expression vector transfection, and control siRNA (Ambion, a random mixture of oligonucleotides) was used as a mock transfected control for both transfections with Tβ4siRNA and anti-miR-146a inhibitor nucleotides. The cells (10^4 cells/cm^2) were treated with 0, 25, 50, 100 ng/ml of Tβ4 (RegeneRx Biopharmaceuticals Inc., Rockville, Md.). The cells were incubated at 37° C. and fed every 2 days with fresh medium (DMEM containing 1% FBS for N20.1 cells and BDM for primary rat embryonic OPCs) with and without Tβ4 for 4 days. To test for LPS contamination in Tβ4, the cells were cultured in the presence of the LPS inhibitor polymyxin B (50 μg/ml) followed by treatment with Tβ4. Tβ4 (100 ng/ml) was boiled for 10 minutes in order to denature Tβ4 protein and was used as a negative control. […]

[8] = second miR named, sentence 'In contrast'

## boiled denatured Tβ4: Tβ4 (100 ng/ml) boiled for 10 minutes to denature the protein, used as a negative control (SDKPDMAEIEKFDKSKLKKTETQEKNPLPSKETIEQEKQAGES; heat-denatured; UniProt P62328 2-44, looked up) [reference compound]
[1]
  expression of MBP, mRNA and protein levels: no effect
[2]
  expression of MBP, mRNA and protein levels: no effect

## thymosin beta 4 (SDKPDMAEIEKFDKSKLKKTETQEKNPLPSKETIEQEKQAGES; listed as Homo sapiens) [Tβ4]
[3]
  number of MBP positive OPCs: significantly increased
[1]; Tβ4 100 ng/ml where used
  increase in mRNA MBP expression: two-fold increase
[1]
  expression of MBP, mRNA and protein levels: induced
[2]; Tβ4 100 ng/ml where used
  increase in mRNA MBP expression: two-fold increase
[2]
  expression of MBP, mRNA and protein levels: induced
Mouse N20.1 cells
  number of MBP positive OPCs: significantly increased
[4]
  expression and phosphorylation of p38MAPK: induced
  expression level of MBP (protein): increased
  expression levels of IRAK1 and TRAF6: markedly reduced
  expression of TLR2 and TLR4: no effect
  phosphorylation of ERK1/2, JNK1 and c-Jun: dose-dependently inhibited
[5]; Tβ4 0 to 100 ng/ml, 4 days
  expression of miR-146a: increased in a dose dependent manner
[5]; [8]
  miR-146a expression (data not shown): no effect
[6]; Tβ4 0 to 100 ng/ml, 4 days
  expression of miR-146a: increased in a dose dependent manner
[6]; [8]
  miR-146a expression (data not shown): no effect
[7]
  expression and phosphorylation of p38MAPK: induced
  expression level of MBP (protein): increased
  expression levels of IRAK1 and TRAF6: markedly reduced
  expression of TLR2 and TLR4: no effect
  phosphorylation of ERK1/2, JNK1 and c-Jun: dose-dependently inhibited
